# Source: US20240293563A1, “GLP-1 RECEPTOR LIGAND MOIETY CONJUGATED OLIGONUCLEOTIDES AND USES THEREOF” (priority 2017, published 2024)
# Square brackets hold non-standard residues; d marks the D form. Side chains are listed from the residue outwards. Ends that are not written are not given here. 5'‑hexylamino oligonucleotide ISIS 786434 = not defined here; Aib = CC(C)(N)C(=O)O; Mpa = O=C(O)CCS
# Key:
# MALAT1 mRNA = assay: Dose dependent antisense inhibition of MALAT1 in hGLP1R-HEK cells; format: cell-based, human; settings: approximately 24 hrs, qRT-PCR normalized to RPLP0
# Protocol: The hGLP1R-HEK cell line was generated by expressing hGLP1R in Flp-IN™ 293 cells. Cultured hGLP1R-HEK cells were seeded at a density 30,000 cells per well in 96 well plates and saline, 100 nM or 10 μM of unconjugated parent antisense oligonucleotide ISIS 556089 targeted to MALAT1 described above or ISIS 776102 (nucleobase sequence: […]) (SEQ ID NO: 64) targeted to FOXO1, or corresponding GLP-1 peptide conjugated antisense oligonucleotides (ISIS 816385 targeted to MALAT1 described above or ION 913193 targeted to FOXO1 described above) for approximately 24 hrs. After the treatment period, cells were harvested, the mRNA isolated and adjusted to total RNA content as measured by nanadrop UV-Vis spectrophotometer. MALAT1 or FOXO1 mRNA levels were measured by quantitative real-time PCR and normalized to the mRNA levels of the house keeping gene (RPLP0) in the same samples. Human MALAT1 mRNA levels were measured using gene expression assays HS00273907 and FOXO1 mRNA levels were measured using assay Hs01054576 (Applied Biosystems). The mRNA level of the house keeping gene RPLP0 was measured using a primer probe set with forward sequence […] CAT […] (SEQ ID NO: 66), reverse sequence […] (SEQ ID NO: 67). […]
# After the treatment period cells were harvested, mRNA isolated and MALAT1 mRNA levels measured by quantitative real-time PCR using the primer probe set as described herein (Example 7). […]
# MALAT1 [1] = assay: MALAT1 expression in pancreas by in situ hybridization (RNAscope); format: in vivo, mouse; settings: 2 μmol/kg, 72 hrs after last dose
# Source text: Female C57BL/6Crl mice were assigned to five treatment groups. […] All animals were sacrificed approximately 72 hrs after last dose, and pancreas harvested for ex vivo analysis of uptake of antisense oligonucleotides by immunohistochemistry.
# Female C57BL/6Crl mice were assigned to five treatment groups as described herein (Example 11) All animals were sacrificed approximately 72 hrs after last dose, and pancreas harvested for ex vivo analysis of MALAT1 expression by in situ hybridization.
# The in situ mRNA amplification and labelling process was performed on the Ventana Discovery ULTRA, an Automated ISH platform(Ventana Medical System, Inc) using the RNAscope® VS Assay based on Advanced Cell Diagnostics (ACD). Customized probes were obtained from ACD for the detection of MALAT1 mRNA, and various parameters were tested to optimize the novel RNAscope method for ISH. The signal was amplified using multiple steps, followed by labeled probes and detected using the RNAscope® 2.5 VS Reagent Kit-RED. Stained slides were analyzed under a standard bright-field microscope.
# MALAT1 [2] = assay: MALAT1 expression in liver by in situ hybridization; format: in vivo, mouse
# Protocol: Tissues were prepared as described herein, Example 11. The in situ mRNA amplification and labelling process was performed on the Ventana Discovery ULTRA, an Automated ISH platform(Ventana Medical System, Inc) using the RNAscope® VS Assay based on Advanced Cell Diagnostics (ACD). Customized probes were obtained from ACD for the detection of MALAT1 mRNA, and various parameters were tested to optimize the novel RNAscope method for ISH. The signal was amplified using multiple steps, followed by labeled probes and detected using the RNAscope® 2.5 VS Reagent Kit-RED. […] All animals were sacrificed approximately 72 hrs after last, and liver harvested for ex vivo analysis of MALAT1 expression by in situ hybridization. Tissues were prepared, and in situ hybridization performed, as described herein, Example 12.
# MALAT1 [3] = assay: MALAT1 in situ hybridization in beta islet cells after i.v. GLP-1 ASO conjugates with various linkers; format: in vivo, mouse; settings: male C57BL/6 mice; intravenous 0.6 μmol/kg/week once a week for three weeks; 72 hours after final injection
# MALAT-1 = assay: Dose-dependent reduction of MALAT-1 expression in LVX-GLP1R cells; format: cell-based, human
# Protocol: HEK cells stably expressing FLAG-tagged GLP1R were generated by infecting HEK 293 cells with FLAG-tagged GLP1R containing lentivirus produced by transfection of 293T cells with pLVX-IRES-Puro (Clontech Laboratories Inc., Mountainview, CA) harboring the FLAG-GLP1R insert. Infected cells were selected with puromycin (2 μg/ml) and then analyzed for receptor expression by western blot and immunofluorescence. Cultured GLP1R cells were plated at a density of 10,000 cells per well and treated with 0.3, 1, 3, 9, 27, 82, 247, 741, 2,222, 6,667, and 20,000 nM modified oligonucleotide for approximately 24 hours. After the treatment period, total RNA was prepared using an RNeasy mini kit (Qiagen, Valencia, CA, USA) and qRT-PCR was performed using the primer probe set RTS2739 (forward sequence: […] (SEQ ID NO: 74), reverse sequence: […] (SEQ ID NO: 75), probe sequence: […] (SEQ ID NO: 76). Briefly, ˜50 ng total RNA in 5 d water was mixed with 0.3 d primer probe sets containing forward and reverse primers (10 μM of each) and fluorescently labeled probe (3 μM), 0.3 W RT enzyme mix (Qiagen), 4.4 d RNase-free water, and 10 d of 2×PCR reaction buffer in a 20 d reaction. Reverse transcription was performed at 48° C. for 10 min, 40 cycles of PCR were conducted at 94° C. for 20 s, and 60° C. for 20 s within each cycle, using StepOne Plus RT-PCR system (Applied Biosystems, Phoenix, AZ, USA). The mRNA levels were normalized to the amount of total RNA present in each reaction as determined by Ribogreen assay (Life Technologies) and normalized to the saline control (100% expression).
# MALAT1 [4] = assay: Effect of peptide composition and attachment point on peptide-conjugated ASO activity in LVX-GLP1R cells; format: cell-based, human; settings: 7 doses in a 4-fold dilution series, MALAT1 RNA
# MALAT1 [5] = assay: MALAT1 inhibition in isolated islets 72 hrs after single s.c. dose, various linkers; format: in vivo, mouse
# MALAT-1 mRNA = assay: Dose-response inhibition of MALAT-1 mRNA in pancreatic islets 72 hrs after single s.c. dose, various linkers; format: in vivo, mouse; settings: 0.01 μmol/kg single subcutaneous injection, relative to PBS
substance,measurement,setting,value
ISIS 816385 (H[Aib]EGTFTSDVSSYLEEQAAKEFIAWLVKGGPSSGAPPPSC([Mpa-5'‑hexylamino oligonucleotide ISIS 786434])-NH2; reading uncertain; also: Cys40 joined to the linker by a disulfide),IC50,MALAT1 mRNA,0.02 µM
same,MALAT1 expression in the pancreatic islet of Langerhans,MALAT1 [1]; subcutaneous or intravenous (ISIS 556089 subcutaneous only),reduced
same,MALAT1 expression in the exocrine tissue of pancreas,MALAT1 [1]; subcutaneous or intravenous,not in the exocrine tissue
same,Liver MALAT1 expression,"MALAT1 [2]; 2 μmol/kg intravenous, compared to vehicle control",reduced compared to vehicle control
same,Liver MALAT1 expression in hepatocytes,"MALAT1 [2]; 2 μmol/kg subcutaneous, compared with ISIS 556089",reduced in hepatocytes of animals treated with ISIS 816385 to a greater extent
same,MALAT1 expression in beta islet cells compared to saline control (in situ hybridization),MALAT1 [3],reduced
same,dose-dependent inhibition of MALAT-1,"MALAT-1; GLP1R HEK cells, GLP-1 complexed ASOs with or without a TCA linker versus parent",increased dose-dependent inhibition
same,IC50,"MALAT-1; approximately 24 hours, read-out: IC50 (MALAT-1 expression in GLP1R HEK cells)",0.26 µM
same,IC50,MALAT1 [4],0.35 µM
same,In vivo ED50,"MALAT1 [5]; MALAT1 in isolated islets, single subcutaneous injection",0.0088 µmol/kg
same,% MALAT1 inhibition,"MALAT1 [5]; isolated islets, female C57BL/6Crl mice, single subcutaneous injection of 0.01 μmol/kg",41%
same,% inhibition of MALAT-1 mRNA in Pancreatic Islets,MALAT-1 mRNA,52%
